# How the values were obtained:
# [1] = tested on: Hs700T malignant pancreatic cells; test: Hs700T pancreatic xenograft tumor growth in mice (04 IGFR-16, 19D12 and Gemzar combination);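 also: subcutaneous flank xenografts in athymic nude mice, treated once tumors averaged 100 mm^3, antibody given intraperitoneally twice weekly, tumor size measured by calipers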
# Description: (§1) Athymic nude mice were inoculated with tumor cells in the right flank, subcutaneously, along with Matrigel (1:1 cells:gel). In these experiments, 5×10^6 cells/mouse in a 1:1 mix with regular matrigel were inoculated subcutaneously. Tumor size was measured with calipers and the data was entered into the labcat program. Mice were grouped with average size of 100 mm^3. Tumor size and body weight were measured twice weekly.
# (§2) In these experiments, mice were dosed twice per week, intraperitoneally (i.p.) with antibody 19D12 and chemotherapeutic agents at the indicated frequency. Tumor size and mouse body weight was measured twice weekly after treatment.
# [2] = tested on: SK-N-MC neuroblastoma cells; test: SK-N-MC neuroblastoma xenograft tumor growth in mice (04 IGFR-13, 19D12 vs. Cisplatin); format: in vivo, Athymic nude mice; settings: Cisplatin 2 mpk
# [3] = tested on: SK-N-AS neuroblatoma cells; test: SK-N-AS neuroblastoma xenograft tumor growth in mice (03 IGFR-09, 19D12 vs. Cytoxan); format: in vivo, Athymic nude mice; settings: 100 mpk Cytoxan
# Description: as §1, §2
# [4] = tested on: SJSA-1 osteosarcoma cells; test: SJSA-1 osteosarcoma xenograft model (05-IGFR-21), dosing from 15 days after inoculation; format: in vivo, female nude mouse (strain NU/NU)
# Description: Xenograft tumor size was measured twice per week with a caliper and captured electronically by the LabCat program. […] For the experiments set forth in Table 9, dosing was initiated 15 days after inoculation. […] Xenograft tumor size was measured twice per week with a caliper and captured electronically by the LabCat program.
# [5] = tested on: SJSA-1 osteosarcoma cells; test: SJSA-1 osteosarcoma xenograft model (05-IGFR-12), dosing from day 18 post inoculation; format: in vivo, female nude mouse (strain NU/NU); settings: 100 mpk Cytoxan
# Description: About 7 million SJSA-1 osteosarcoma cells were inoculated subcutaneously to the flank of each female nude mouse (strain NU/NU from Charles River, age ˜6 wks-old, average weight ˜20 gram). For the experiment set forth in Table 8, dosing was initiated on day 18 post inoculation, when the xenograft tumor reached an average size of about 100 mm^3. Anti-IGF1R antibody (19D12 Light chain F/Heavy chain A (as set forth above)) was given ip twice a week at the dose of either 0.02 mg, 0.1 and 0.5 mg per mouse, while cytotoxic Cytoxan (cyclophosphamide) was given ip twice per week at the dose of 100 mpk for a total of 3 injection during the course of the study. Xenograft tumor size was measured twice per week with a caliper and captured electronically by the LabCat program.
# [6] = tested on: SJCRH30 rhabdomyosarcoma cells; test: SJCRH30 rhabdomyosarcoma xenograft tumor growth in mice (05 IGFR-01, 19D12 and Cytoxan); format: in vivo, Athymic nude mice; settings: 100 mpk Cytoxan
# Description: as §1, §2
smiles,measurement,setting,value
"N.N.[Cl][Pt][Cl] [Cisplatin, cisplatin, reference compound]",Tumor Average Size,"[1]; 5 mpk Cisplatin, Day 0",79 mm^3
same,Tumor Average Size,"[1]; 5 mpk Cisplatin, Day 4",87 mm^3
same,Tumor Average Size,"[1]; 5 mpk Cisplatin, Day 7",96 mm^3
same,Tumor Average Size,"[1]; 5 mpk Cisplatin, Day 11",99 mm^3
same,Tumor Average Size,"[1]; 5 mpk Cisplatin, Day 14",100 mm^3
same,Tumor Average Size,"[1]; 5 mpk Cisplatin, Day 18",107 mm^3
same,Tumor Average Size,"[1]; 5 mpk Cisplatin, Day 21",113 mm^3
same,Tumor Average Size,"[1]; 5 mpk Cisplatin, Day 26",155 mm^3
same,Tumor Average Size,"[1]; 5 mpk Cisplatin, Day 29",175 mm^3
same,Tumor Average Size,"[1]; 5 mpk Cisplatin, Day 33",185 mm^3
same,Tumor Average Size,"[1]; 5 mpk Cisplatin, Day 36",173 mm^3
same,Tumor Average Size,[2]; Day 0,99 mm^3
same,Tumor Average Size,[2]; Day 2,131 mm^3
same,Tumor Average Size,[2]; Day 6,174 mm^3
same,Tumor Average Size,[2]; Day 9,212 mm^3
same,Tumor Average Size,[2]; Day 13,264 mm^3
same,Tumor Average Size,[2]; Day 16,288 mm^3
same,Tumor Average Size,[2]; Day 20,299 mm^3
same,Tumor Average Size,[2]; Day 23,352 mm^3
same,Tumor Average Size,[2]; Day 24,352 mm^3
"O=P1(N(CCCl)CCCl)NCCCO1 (stereo not drawn) [Cytoxan, cyclophosphamide, reference compound]",Tumor Average Size,[3]; Day 4,257 mm^3
same,Tumor Average Size,[3]; Day 7,227 mm^3
same,Tumor Average Size,[3]; Day 11,111 mm^3
same,Tumor Average Size,[3]; Day -1,122 mm^3
same,Mean Tumor size,"[4]; 50 mpk Cytoxan, Day 0",145 mm3
same,Mean Tumor size,"[4]; 50 mpk Cytoxan, Day 4",198 mm3
same,Mean Tumor size,"[4]; 50 mpk Cytoxan, Day 7",287 mm3
same,Mean Tumor size,"[4]; 50 mpk Cytoxan, Day 11",614 mm3
same,Mean Tumor size,"[4]; 50 mpk Cytoxan, Day 14",908 mm3
same,Mean Tumor size,"[4]; 100 mpk Cytoxan, Day 0",149 mm3
same,Mean Tumor size,"[4]; 100 mpk Cytoxan, Day 4",132 mm3
same,Mean Tumor size,"[4]; 100 mpk Cytoxan, Day 7",193 mm3
same,Mean Tumor size,"[4]; 100 mpk Cytoxan, Day 11",218 mm3
same,Mean Tumor size,"[4]; 100 mpk Cytoxan, Day 14",285 mm3
same,Mean Tumor size,[5]; Day 0,96 mm3
same,Mean Tumor size,[5]; Day 3,111 mm3
same,Mean Tumor size,[5]; Day 7,102 mm3
same,Mean Tumor size,[5]; Day 10,59 mm3
same,Mean Tumor size,[5]; Day 14,140 mm3
same,Mean Tumor size,[5]; Day 17,172 mm3
same,Mean Tumor size,[5]; Day 21,302 mm3
same,Mean Tumor size,[5]; Day 24,586 mm3
same,Mean Tumor size,[5]; Day 28,972 mm3
same,Tumor Average Size,[6]; Day 0,75 mm^3
same,Tumor Average Size,[6]; Day 4,125 mm^3
same,Tumor Average Size,[6]; Day 7,232 mm^3
same,Tumor Average Size,[6]; Day 11,347 mm^3
same,Tumor Average Size,[6]; Day 14,591 mm^3
same,Tumor Average Size,[6]; Day 18,733 mm^3
"Cl.Nc1ccn(C2OC(CO)C(O)C2(F)F)c(=O)n1 (stereo not drawn) [Gemzar, gemcitabine, reference compound]",Tumor Average Size,"[1]; 100 mpk Gemzar, Day 0",77 mm^3
same,Tumor Average Size,"[1]; 100 mpk Gemzar, Day 4",86 mm^3
same,Tumor Average Size,"[1]; 100 mpk Gemzar, Day 7",98 mm^3
same,Tumor Average Size,"[1]; 100 mpk Gemzar, Day 11",105 mm^3
same,Tumor Average Size,"[1]; 100 mpk Gemzar, Day 14",119 mm^3
same,Tumor Average Size,"[1]; 100 mpk Gemzar, Day 18",148 mm^3
same,Tumor Average Size,"[1]; 100 mpk Gemzar, Day 21",166 mm^3
same,Tumor Average Size,"[1]; 100 mpk Gemzar, Day 26",249 mm^3
same,Tumor Average Size,"[1]; 100 mpk Gemzar, Day 29",284 mm^3
same,Tumor Average Size,"[1]; 100 mpk Gemzar, Day 33",324 mm^3
same,Tumor Average Size,"[1]; 100 mpk Gemzar, Day 36",368 mm^3
